Measurements as given in patent US9663473B2 (Actelion Pharmaceuticals Ltd, priority 2013, dated 2017).
pEC50: −log10 of the molar value. Where a name gives a salt, the structure may show the parent alone.

What follows are molecules tested against T1, recombinant human ALX receptor (Homo sapiens, UniProt P25090) (assay: Intracellular calcium measurements (FLIPR), ALX receptor agonistic activity). Conditions: HEK293-hALXR-Gα16 cells, Fluo-4 calcium signal, normalized to WKYMVm 10 nM.
T1 construct: expressed in transfected cells; host or cells: HEK293 (HEK293-hALXR-Gα16)
T1 sequence (P25090 1-351): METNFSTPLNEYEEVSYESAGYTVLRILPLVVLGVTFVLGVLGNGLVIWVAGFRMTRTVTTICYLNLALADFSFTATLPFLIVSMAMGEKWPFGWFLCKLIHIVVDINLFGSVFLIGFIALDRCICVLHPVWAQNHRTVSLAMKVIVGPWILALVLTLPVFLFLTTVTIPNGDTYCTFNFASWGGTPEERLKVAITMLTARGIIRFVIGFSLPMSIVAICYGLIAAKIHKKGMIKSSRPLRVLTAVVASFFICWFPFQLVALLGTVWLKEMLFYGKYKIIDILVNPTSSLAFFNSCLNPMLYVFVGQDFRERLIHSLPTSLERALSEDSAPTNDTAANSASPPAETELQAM
Assay type: cell-based
Protocol: The ALX receptor agonistic activity of the compounds of formula (I) is determined in accordance with the following experimental method.
Intracellular Calcium Measurements:
Cells expressing recombinant human ALX receptor and the G-protein Gα16 (HEK293-hALXR-Gα16) were grown to 80% confluency in Growing Medium (GM). Cells were detached from culture dishes with a cell dissociation buffer (Invitrogen, 13151-014), and collected by centrifugation at 1′000 rpm at rt for 5 min in Assay Buffer (AB) (equal parts of Hank's BSS (Gibco, 14065-049) and DMEM without Phenol Red (Gibco, 11880-028)). After 60 min incubation at 37° C. under 5% CO2 in AB supplemented with 1 μM Fluo-4 (AM) (Invitrogen, F14202) and 20 mM HEPES (Gibco, 15630-056), the cells were washed and resuspended in AB. They were then seeded onto 384-well FLIPR assay plates (Greiner, 781091) at 50′000 cells in 70 μl per well and sedimented by centrifugation at 1′000 rpm for 1 min. Stock solutions of test compounds were made up at a concentration of 10 mM in DMSO, and serially diluted in AB to concentrations required for activation dose response curves. WKYMVm (Phoenix Peptides) was used as a reference agonist. A FLIPR Tetra instrument (Molecular Devices) was operated according to the manufacturer's standard instructions, adding 4 μl of test compound dissolved at 10 mM in DMSO and diluted prior to the experiment in assay buffer to obtain the desired final concentration. Changes in fluorescence were monitored before and after the addition of test compounds at lex=488 nm and lem=540 nm. Emission peak values above base level after compounds addition were exported after base line subtraction. Values were normalized to high-level control (WKYMVm compound, 10 nM final concentration) after subtraction of the base line value (AB addition).
In the case of “1-(1-(1H-Benzo[d]imidazol-2-yl)-2-(3,5-difluoro-4-methoxyphenyl)ethyl)-3-(4-hydroxybicyclo[2.2.2]octan-1-yl)urea [Example 242]”, the pEC50 was 7.15.
For `O=C(NC(Cc1ccc(Br)cc1F)c1nc2ccccc2[nH]1)NC12CCC(O)(CC1)CC2` (stereo not drawn) [Example 254, 1-(1-(1H-Benzo[d]imidazol-2-yl)-2-(4-bromo-2-fluorophenyl)ethyl)-3-(4-hydroxybicyclo[2.2.2]octan-1-yl)urea], the pEC50 was 7.68.
`COc1ccc(CC(NC(=O)NC23CCC(O)(CC2)CC3)c2nc3ccccc3[nH]2)c(F)c1` (single isomer, unassigned; ent-1) [Example 261, 1-(1-(1H-Benzo[d]imidazol-2-yl)-2-(2-fluoro-4-methoxyphenyl)ethyl)-3-(4-hydroxybicyclo[2.2.2]octan-1-yl)urea (ent-1)] was tested, and the pEC50 was 8.49.
`COc1ccc(C[C@@H](NC(=O)N[C@H]2CCC[C@H]2O)c2nc3ccccc3[nH]2)cc1` [Example 114, 1-((R)-1-(1H-Benzo[d]imidazol-2-yl)-2-(4-methoxyphenyl)ethyl)-3-((1S,2R)-2-hydroxycyclopentyl)urea] gave a pEC50 of 6.72.
Work on `COc1ccc(C[C@@H](NC(=O)Nc2c(-c3ccccc3)noc2C)c2nc3ccccc3[nH]2)cc1` [Example 213, (R)-1-(1-(1H-Benzo[d]imidazol-2-yl)-2-(4-methoxyphenyl)ethyl)-3-(5-methyl-3-phenylisoxazol-4-yl)urea] yielded a pEC50 of 7.28.
In the case of `COc1ccc(CC(NC(=O)N[C@H]2CC[C@H](O)CC2)c2nc3cc(F)ccc3[nH]2)c(F)c1F` (single isomer, unassigned; ent-2) [Example 376, 1-(2-(2,3-Difluoro-4-methoxyphenyl)-1-(5-fluoro-1H-benzo[d]imidazol-2-yl)ethyl)-3-(trans-4-hydroxycyclohexyl)urea (ent-2)], the pEC50 was 7.17.
With `O=C(NC(Cc1ccc(OC(F)(F)F)cc1)c1nc2ccccc2[nH]1)NC1CN2CCC1CC2` (stereo not drawn) [Example 141, 1-(1-(1H-Benzo[d]imidazol-2-yl)-2-(4-(trifluoromethoxy)phenyl)ethyl)-3-(quinuclidin-3-yl)urea] the pEC50 was 6.08.
`COc1ccc(C[C@@H](NC(=O)NC2CCNC(=O)C2)c2nc3ccccc3[nH]2)cc1` (stereo partly drawn) [Example 174, 1-((R)-1-(1H-Benzo[d]imidazol-2-yl)-2-(4-methoxyphenyl)ethyl)-3-(2-oxopiperidin-4-yl)urea] showed a pEC50 of 6.54.
`COc1ccc(C[C@@H](NC(=O)NCCN2CCN(C)CC2)c2nc3ccccc3[nH]2)cc1` [Example 151, (R)-1-(1-(1H-Benzo[d]imidazol-2-yl)-2-(4-methoxyphenyl)ethyl)-3-(2-(4-methylpiperazin-1-yl)ethyl)urea] gave a pEC50 of 6.24.
For `COc1ccc(C[C@@H](NC(=O)NCCc2ccc(Cl)cc2)c2nc3ccccc3[nH]2)cc1` [Example 302, (R)-1-(1-(1H-Benzo[d]imidazol-2-yl)-2-(4-methoxyphenyl)ethyl)-3-(4-chlorophenethyl)urea], the pEC50 was 6.89.
`COc1ccc(C[C@@H](NC(=O)N[C@H]2CC[C@H](C(=O)O)CC2)c2nc3ccccc3[nH]2)cc1` [Example 225, trans-4-(3-((R)-1-(1H-Benzo[d]imidazol-2-yl)-2-(4-methoxyphenyl)ethyl)ureido)cyclohexanecarboxylic acid, lithium salt] showed a pEC50 of 7.32.
Molecule `O=C(NC(Cc1ccc(C(F)F)cc1)c1nc2ccccc2[nH]1)N[C@H]1CC[C@H](O)CC1` (single isomer, unassigned; ent-2) [Example 369, 1-(1-(1H-Benzo[d]imidazol-2-yl)-2-(4-(difluoromethyl)phenyl)ethyl)-3-(trans-4-hydroxycyclohexyl)urea (ent-2)] has a pEC50 of 8.14.
`COc1ccc(C[C@@H](NC(=O)NC(C)(C)c2ccc(C)cc2)c2nc3ccccc3[nH]2)cc1` [Example 270, (R)-1-(1-(1H-Benzo[d]imidazol-2-yl)-2-(4-methoxyphenyl)ethyl)-3-(2-(p-tolyl)propan-2-yl)urea] gave a pEC50 of 6.65.
`COc1ccc(C[C@@H](NC(=O)NC2CN3CCC2CC3)c2nc3ccccc3[nH]2)cc1` (stereo partly drawn) [Example 89, 1-((R)-1-(1H-Benzo[d]imidazol-2-yl)-2-(4-methoxyphenyl)ethyl)-3-(quinuclidin-3-yl)urea] gave a pEC50 of 7.82.
Molecule `COc1ccc(CC(NC(=O)NC23CCC(O)(CC2)CC3)c2nc3ccc(F)cc3[nH]2)c(F)c1` (single isomer, unassigned; ent-2) [Example 398, 1-(1-(6-Fluoro-1H-benzo[d]imidazol-2-yl)-2-(2-fluoro-4-methoxyphenyl)ethyl)-3-(4-hydroxybicyclo[2.2.2]octan-1-yl)urea (ent-2)] has a pEC50 of 5.58.
In the case of `COc1ccc(C[C@@H](NC(=O)NC2CCN(C(C)C)CC2)c2nc3ccccc3[nH]2)cc1` [Example 101, (R)-1-(1-(1H-Benzo[d]imidazol-2-yl)-2-(4-methoxyphenyl)ethyl)-3-(1-isopropylpiperidin-4-yl)urea], the pEC50 was 6.95.
Work on `COc1ccc(C[C@@H](NC(=O)NCCc2ccc(F)c(F)c2)c2nc3ccccc3[nH]2)cc1` [Example 300, (R)-1-(1-(1H-Benzo[d]imidazol-2-yl)-2-(4-methoxyphenyl)ethyl)-3-(3,4-difluorophenethyl)urea] yielded a pEC50 of 7.09.
With `COc1ccc(CC(NC(=O)Nc2ccnn2-c2ccc(F)cc2)c2nc3ccccc3[nH]2)cc1` (stereo not drawn) [Example 410, 1-(1-(1H-benzo[d]imidazol-2-yl)-2-(4-methoxyphenyl)ethyl)-3-(1-(4-fluorophenyl)-1H-pyrazol-5-yl)urea] the pEC50 was 7.35.
`O=C(NC(Cc1ccc(Br)cc1F)c1nc2ccccc2[nH]1)N[C@H]1CC[C@H](O)CC1` (single isomer, unassigned; ent-1) [Example 313, 1-(1-(1H-Benzo[d]imidazol-2-yl)-2-(4-bromo-2-fluorophenyl)ethyl)-3-(trans-4-hydroxycyclohexyl)urea (ent-1)] was tested, and the pEC50 was 8.62.
In the case of `COc1ccc(C[C@@H](NC(=O)NC23CCC(O)(CC2)CC3)c2nc3ccccc3[nH]2)cc1` [Example 166, (R)-1-(1-(1H-Benzo[d]imidazol-2-yl)-2-(4-methoxyphenyl)ethyl)-3-(4-hydroxybicyclo[2.2.2]octan-1-yl)urea], the pEC50 was 8.68.
`COc1ccc(C[C@@H](NC(=O)N2CCC3NCCC32)c2nc3ccccc3[nH]2)cc1` (stereo partly drawn) [Example 128, N—((R)-1-(1H-Benzo[d]imidazol-2-yl)-2-(4-methoxyphenyl)ethyl)hexahydropyrrolo[3,2-b]pyrrole-1(2H)-carboxamide] was tested, and the pEC50 was 6.51.
`COc1ccc(C[C@@H](NC(=O)N[C@@H]2CCNC2)c2nc3ccccc3[nH]2)cc1` [Example 125, 1-((R)-1-(1H-Benzo[d]imidazol-2-yl)-2-(4-methoxyphenyl)ethyl)-3-((R)-pyrrolidin-3-yl)urea] gave a pEC50 of 7.09.
Work on `COc1ccc(C[C@@H](NC(=O)N2CC3CCC2CN3C)c2nc3ccccc3[nH]2)cc1` (stereo partly drawn) [Example 168, N—((R)-1-(1H-Benzo[d]imidazol-2-yl)-2-(4-methoxyphenyl)ethyl)-5-methyl-2,5-diazabicyclo[2.2.2]octane-2-carboxamide] yielded a pEC50 of 7.06.
With `COc1ccc(CC(C)(NC(=O)N[C@H]2CC[C@H](O)CC2)c2nc3ccccc3[nH]2)cc1` (relative stereo) [Example 1, 1-(2-(1H-Benzo[d]imidazol-2-yl)-1-(4-methoxyphenyl)propan-2-yl)-3-(trans-4-hydroxycyclohexyl)urea] the pEC50 was 6.82.
